Data taken from PubChem BioAssay AID2060908 (Molecular Pharmacology Branch, DTP, NCI, 2025).

Tested on: 186277-243-T-J2-PDC complex spheroids, viability
Experiment: Anticancer human tumor 186277-243-T-J2-PDC patient-derived colon adenocarcinoma cell line growth inhibition [RAS]
Settings: for IC50: curve of first compound; for viability, T/C: stronger effect = lower value
Outline: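 Tumour cells grown as complex spheroids with HUVEC endothelial cells and mesenchymal stem cells, treated with RAS pathway inhibitor combinations. Each agent spans half-log steps from near clinical Cmax, or 10 microM where Cmax is unknown.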
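Note: spheroids exposed to compounds for 7 days before viability read.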

**Q.** With CC(Nc1ccc2c(c1)OCCn1cc(N3C(=O)OCC3C(F)F)nc1-2)C(N)=O (centres undefined) + C#Cc1c(F)ccc2cc(O)cc(-c3ncc4c(N5CC6CCC(C5)N6)nc(OCC56CCCN5CC(F)C6)nc4c3F)c12 as the compound, how does the IC50 (second compound 0.0316 µM) read?
**A.** The IC50 was < 31.6 nM.

**Q.** And the IC50 (second compound 0.1 µM)?
**A.** The IC50 was < 31.6 nM.

**Q.** And the IC50 (second compound 0.316 µM)?
**A.** The IC50 was < 31.6 nM.

**Q.** What about the IC50 (second compound 1 µM) of the same compound?
**A.** Its IC50 is < 31.6 nM.

**Q.** And the IC50 (second compound 3.16 µM)?
**A.** The IC50 was < 31.6 nM.

**Q.** What about the IC50 (second compound 10 µM) of the same compound?
**A.** The IC50 was < 31.6 nM.

**Q.** And the viability, T/C (second compound 0.0316 µM, first compound 0.0316 µM)?
**A.** The viability, T/C was 45.9%.

**Q.** And the viability, T/C (second compound 0.0316 µM, first compound 0.1 µM)?
**A.** The viability, T/C was 39.7%.

**Q.** And the viability, T/C (second compound 0.0316 µM, first compound 0.316 µM)?
**A.** The viability, T/C was 16.1%.

**Q.** What about the viability, T/C (second compound 0.0316 µM, first compound 1 µM) of the same compound?
**A.** The viability, T/C was 7.04%.

**Q.** And the viability, T/C (second compound 0.0316 µM, first compound 3.16 µM)?
**A.** The viability, T/C was 3.9%.

**Q.** What about the viability, T/C (second compound 0.0316 µM, first compound 10 µM) of the same compound?
**A.** Its viability, T/C is 3.75%.

**Q.** And the viability, T/C (second compound 0.1 µM, first compound 0.0316 µM)?
**A.** Its viability, T/C is 25.7%.

**Q.** And the viability, T/C (second compound 0.1 µM, first compound 0.1 µM)?
**A.** The viability, T/C was 16%.

**Q.** And the viability, T/C (second compound 0.1 µM, first compound 0.316 µM)?
**A.** The viability, T/C was 4.89%.

**Q.** And the viability, T/C (second compound 0.1 µM, first compound 1 µM)?
**A.** Its viability, T/C is 2.76%.

**Q.** And the viability, T/C (second compound 0.1 µM, first compound 3.16 µM)?
**A.** Its viability, T/C is 1.89%.

**Q.** And the viability, T/C (second compound 0.1 µM, first compound 10 µM)?
**A.** The viability, T/C was 2.88%.

**Q.** What about the viability, T/C (second compound 0.316 µM, first compound 0.0316 µM) of the same compound?
**A.** The viability, T/C was 18.2%.

**Q.** And the viability, T/C (second compound 0.316 µM, first compound 0.1 µM)?
**A.** Its viability, T/C is 7.51%.

**Q.** And the viability, T/C (second compound 0.316 µM, first compound 0.316 µM)?
**A.** Its viability, T/C is 2.9%.

**Q.** What about the viability, T/C (second compound 0.316 µM, first compound 1 µM) of the same compound?
**A.** The viability, T/C was 2.32%.

**Q.** And the viability, T/C (second compound 0.316 µM, first compound 3.16 µM)?
**A.** Its viability, T/C is 1.28%.

**Q.** And the viability, T/C (second compound 0.316 µM, first compound 10 µM)?
**A.** The viability, T/C was 1.02%.

**Q.** What about the viability, T/C (second compound 1 µM, first compound 0.0316 µM) of the same compound?
**A.** Its viability, T/C is 9.56%.

**Q.** What about the viability, T/C (second compound 1 µM, first compound 0.1 µM) of the same compound?
**A.** Its viability, T/C is 5.56%.

**Q.** And the viability, T/C (second compound 1 µM, first compound 0.316 µM)?
**A.** The viability, T/C was 2.6%.

**Q.** And the viability, T/C (second compound 1 µM, first compound 1 µM)?
**A.** Its viability, T/C is 1.95%.

**Q.** And the viability, T/C (second compound 1 µM, first compound 3.16 µM)?
**A.** The viability, T/C was 1.11%.

**Q.** What about the viability, T/C (second compound 1 µM, first compound 10 µM) of the same compound?
**A.** The viability, T/C was 1.01%.

**Q.** And the viability, T/C (second compound 3.16 µM, first compound 0.0316 µM)?
**A.** The viability, T/C was 8.36%.

**Q.** And the viability, T/C (second compound 3.16 µM, first compound 0.1 µM)?
**A.** The viability, T/C was 4.7%.

**Q.** And the viability, T/C (second compound 3.16 µM, first compound 0.316 µM)?
**A.** The viability, T/C was 2.45%.

**Q.** And the viability, T/C (second compound 3.16 µM, first compound 1 µM)?
**A.** The viability, T/C was 1.84%.

**Q.** What about the viability, T/C (second compound 3.16 µM, first compound 3.16 µM) of the same compound?
**A.** The viability, T/C was 3.64%.

**Q.** And the viability, T/C (second compound 3.16 µM, first compound 10 µM)?
**A.** Its viability, T/C is 0.74%.

**Q.** And the viability, T/C (second compound 10 µM, first compound 0.0316 µM)?
**A.** The viability, T/C was 6.16%.

**Q.** And the viability, T/C (second compound 10 µM, first compound 0.1 µM)?
**A.** Its viability, T/C is 2.81%.

**Q.** What about the viability, T/C (second compound 10 µM, first compound 0.316 µM) of the same compound?
**A.** Its viability, T/C is 1.2%.

**Q.** What about the viability, T/C (second compound 10 µM, first compound 1 µM) of the same compound?
**A.** Its viability, T/C is 0.66%.

**Q.** What about the viability, T/C (second compound 10 µM, first compound 3.16 µM) of the same compound?
**A.** The viability, T/C was 0.3%.

**Q.** And the viability, T/C (second compound 10 µM, first compound 10 µM)?
**A.** Its viability, T/C is 0.16%.

**Q.** How did the IC50 (second compound 0.000949 µM) turn out when Nc1ccn(C2OC(CO)C(O)C2(F)F)c(=O)n1 (centres undefined) + CCn1c(-c2cccnc2C(C)OC)c2c3cc(ccc31)N1CCOC(CC(NC(=O)C(C(C)C)N(C)C(=O)C3(F)CCN(C(=O)C#CC(C)(C)N(C)C)CC3)C(=O)N3CCCC(N3)C(=O)OCC(C)(C)C2)C1 was run?
**A.** Its IC50 is 4.49 nM.

**Q.** What about the IC50 (second compound 0.003 µM) of the same compound?
**A.** Its IC50 is 4.28 nM.

**Q.** And the IC50 (second compound 0.00949 µM)?
**A.** Its IC50 is 3.48 nM.

**Q.** And the IC50 (second compound 0.03 µM)?
**A.** Its IC50 is 4.6 nM.

**Q.** What about the IC50 (second compound 0.0949 µM) of the same compound?
**A.** The IC50 was < 3.16 nM.

**Q.** What about the IC50 (second compound 0.3 µM) of the same compound?
**A.** The IC50 was < 3.16 nM.

**Q.** What about the viability, T/C (second compound 0.000949 µM, first compound 0.00316 µM) of the same compound?
**A.** Its viability, T/C is 67.5%.

**Q.** What about the viability, T/C (second compound 0.000949 µM, first compound 0.01 µM) of the same compound?
**A.** The viability, T/C was 10.1%.

**Q.** And the viability, T/C (second compound 0.000949 µM, first compound 0.0316 µM)?
**A.** Its viability, T/C is 8.11%.

**Q.** And the viability, T/C (second compound 0.000949 µM, first compound 0.1 µM)?
**A.** The viability, T/C was 7.98%.

**Q.** And the viability, T/C (second compound 0.000949 µM, first compound 0.316 µM)?
**A.** The viability, T/C was 8.36%.

**Q.** What about the viability, T/C (second compound 0.000949 µM, first compound 1 µM) of the same compound?
**A.** The viability, T/C was 8.73%.

**Q.** What about the viability, T/C (second compound 0.003 µM, first compound 0.00316 µM) of the same compound?
**A.** Its viability, T/C is 63.9%.

**Q.** What about the viability, T/C (second compound 0.003 µM, first compound 0.01 µM) of the same compound?
**A.** The viability, T/C was 11.2%.

**Q.** And the viability, T/C (second compound 0.003 µM, first compound 0.0316 µM)?
**A.** Its viability, T/C is 8.78%.

**Q.** And the viability, T/C (second compound 0.003 µM, first compound 0.1 µM)?
**A.** The viability, T/C was 8.02%.

**Q.** And the viability, T/C (second compound 0.003 µM, first compound 0.316 µM)?
**A.** Its viability, T/C is 8.07%.

**Q.** And the viability, T/C (second compound 0.003 µM, first compound 1 µM)?
**A.** The viability, T/C was 8.41%.

**Q.** What about the viability, T/C (second compound 0.00949 µM, first compound 0.00316 µM) of the same compound?
**A.** Its viability, T/C is 53.5%.

**Q.** And the viability, T/C (second compound 0.00949 µM, first compound 0.01 µM)?
**A.** The viability, T/C was 10.5%.

**Q.** And the viability, T/C (second compound 0.00949 µM, first compound 0.0316 µM)?
**A.** Its viability, T/C is 9.25%.

**Q.** And the viability, T/C (second compound 0.00949 µM, first compound 0.1 µM)?
**A.** The viability, T/C was 7.85%.

**Q.** What about the viability, T/C (second compound 0.00949 µM, first compound 0.316 µM) of the same compound?
**A.** Its viability, T/C is 8.92%.

**Q.** What about the viability, T/C (second compound 0.00949 µM, first compound 1 µM) of the same compound?
**A.** The viability, T/C was 8.55%.

**Q.** What about the viability, T/C (second compound 0.03 µM, first compound 0.00316 µM) of the same compound?
**A.** Its viability, T/C is 68.8%.

**Q.** What about the viability, T/C (second compound 0.03 µM, first compound 0.01 µM) of the same compound?
**A.** Its viability, T/C is 10.9%.

**Q.** And the viability, T/C (second compound 0.03 µM, first compound 0.0316 µM)?
**A.** Its viability, T/C is 8.53%.

**Q.** And the viability, T/C (second compound 0.03 µM, first compound 0.1 µM)?
**A.** The viability, T/C was 8.14%.

**Q.** What about the viability, T/C (second compound 0.03 µM, first compound 0.316 µM) of the same compound?
**A.** Its viability, T/C is 8.68%.

**Q.** What about the viability, T/C (second compound 0.03 µM, first compound 1 µM) of the same compound?
**A.** Its viability, T/C is 8.3%.

**Q.** What about the viability, T/C (second compound 0.0949 µM, first compound 0.00316 µM) of the same compound?
**A.** Its viability, T/C is 44.6%.

**Q.** What about the viability, T/C (second compound 0.0949 µM, first compound 0.01 µM) of the same compound?
**A.** Its viability, T/C is 10.5%.

**Q.** And the viability, T/C (second compound 0.0949 µM, first compound 0.0316 µM)?
**A.** The viability, T/C was 8.39%.

**Q.** And the viability, T/C (second compound 0.0949 µM, first compound 0.1 µM)?
**A.** The viability, T/C was 7.33%.

**Q.** And the viability, T/C (second compound 0.0949 µM, first compound 0.316 µM)?
**A.** The viability, T/C was 8.62%.

**Q.** What about the viability, T/C (second compound 0.0949 µM, first compound 1 µM) of the same compound?
**A.** The viability, T/C was 7.75%.

**Q.** And the viability, T/C (second compound 0.3 µM, first compound 0.00316 µM)?
**A.** Its viability, T/C is 30.3%.

**Q.** What about the viability, T/C (second compound 0.3 µM, first compound 0.01 µM) of the same compound?
**A.** Its viability, T/C is 7.82%.

**Q.** And the viability, T/C (second compound 0.3 µM, first compound 0.0316 µM)?
**A.** Its viability, T/C is 6.28%.

**Q.** And the viability, T/C (second compound 0.3 µM, first compound 0.1 µM)?
**A.** Its viability, T/C is 6.15%.

**Q.** And the viability, T/C (second compound 0.3 µM, first compound 0.316 µM)?
**A.** The viability, T/C was 6.47%.

**Q.** What about the viability, T/C (second compound 0.3 µM, first compound 1 µM) of the same compound?
**A.** Its viability, T/C is 5.78%.
